Consider three compounds from patent publication US7786083B2, “Metastin derivatives and use thereof” (Takeda Pharmaceutical Company Limited, priority 2006, dated 2010).

This assay deals with metastin receptors. The assay is described as follows: Measurement of agonist activity by assaying changes in intracellular calcium ion level (FLIPR, Fluo-4 NW). The assay is classed as cell-based, human. The conditions noted are these: specific activity of the EC50 of a test compound based on the EC50 of Metastin (45-54), metastin receptor expression CHO cells. The method, boiled down: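 CHO/dhfr⁻ cells stably expressing human or rat metastin receptor, seeded 3×10^4/well for 24 h, loaded with Fluo-4 NW 30 min at 37 °C in HBSS with 0.1% BSA, 20 mM HEPES pH 7.4 and 1 mM probenecid. Compound-stimulated intracellular calcium change read on FLIPR.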
A general note: A change in cytosolic calcium serves as a functional read-out for many receptors and channels.

Where a SMILES comes first, the peptide text is derived from it. [ ]: non-standard residue; d: D form. Pro(trans-4-F) = O=C(O)[C@@H]1C[C@@H](F)CN1; Arg(Me) = CNC(=N)NCCC[C@H](N)C(=O)O; Ala(cPr) = N[C@@H](CC1CC1)C(=O)O; Hyp = O=C(O)[C@@H]1C[C@@H](O)CN1; tBuAla = CC(C)(C)C[C@H](N)C(=O)O; Cha = N[C@@H](CC1CCCCC1)C(=O)O

On to `CNC(=N)NCCC[C@H](NC(=O)[C@H](CC(C)(C)C)NC(=O)CNC(=O)[C@H](CC1CCCCC1)NC(=O)[C@@H](NC(=O)[C@H](CC(N)=O)NC(=O)[C@@H]1C[C@@H](O)CN1C(=O)[C@@H](Cc1ccc(O)cc1)NC(C)=O)[C@@H](C)O)C(=O)N[C@@H](Cc1c[nH]c2ccccc12)C(N)=O` [Compound No. 933, des(1)-Ac-[D-Tyr2,Hyp3,Thr5,Cha6,Leu(Me)8,Arg(Me)9,Trp10]MS10] (Ac-[dY][Hyp]NT[Cha]G[tBuAla][Arg(Me)]W-NH2), for which the “Specific Activity” value stood at 1.4.
The same measure for “des(1)-Ac-[D-Tyr2,Hyp3,Thr5,Gly7Ψ(CH2NH)Leu8,Arg(Me)9,Trp10]MS10 (Ac-[dY][Hyp]NTFGL[Arg(Me)]W-NH2; also: -CONH- between Gly and Leu replaced by -CH2NH-) [Compound No. 854]”: 2.9; for “des(1)-Ac-[D-Tyr2,Pro(4F)3,Thr5,Cha6,Ala(cPr)8,Arg(Me)9,Trp10]MS10 (Ac-[dY][Pro(trans-4-F)]NT[Cha]G[Ala(cPr)][Arg(Me)]W-NH2; SMILES CNC(=N)NCCC[C@H](NC(=O)[C@H](CC1CC1)NC(=O)CNC(=O)[C@H](CC1CCCCC1)NC(=O)[C@@H](NC(=O)[C@H](CC(N)=O)NC(=O)[C@@H]1C[C@@H](F)CN1C(=O)[C@@H](Cc1ccc(O)cc1)NC(C)=O)[C@@H](C)O)C(=O)N[C@@H](Cc1c[nH]c2ccccc12)C(N)=O) [Compound No. 959]”: 0.4.
